Two compounds from ChEMBL document CHEMBL1681664, “Specific biotinylation of IMP dehydrogenase” (Bioorg Med Chem Lett, 2011) can be followed below.

Active and inactive are the calls of the source. The rule behind the calls is not given here.

In experiment [1] the target is Inosine-5'-monophosphate dehydrogenase 2 (Homo sapiens) (UniProt P12268). In words: Inhibition of human IMPDH2 at 100 to 500 uM at pH 8.
Experiment [2] deals with Escherichia coli. In words: Ratio of Kinact to Ki for Escherichia coli IMPDH at 25 degC.
Experiment [3] concerns the target Inosine-5'-monophosphate dehydrogenase 2 (Homo sapiens) (UniProt P12268). The experiment can be described thus: Ratio of Kinact to Ki for human IMPDH2 at 37 degC.
Experiment [4] has as its system Escherichia coli. In words: Inhibition of recombinant Escherichia coli IMPDH by SDS-PAGE.
Experiment [5] deals with Escherichia coli. In words: Inhibition of recombinant Escherichia coli IMPDH with active site Cys replaced with Ala mutant by SDS-PAGE.
Experiment [6] addresses Inosine-5'-monophosphate dehydrogenase 2 (Homo sapiens) (UniProt P12268). The experiment can be described thus: Inhibition of human IMPDH2 at 200 uM by SDS-PAGE.
Experiment [7] concerns Escherichia coli. The experiment can be described thus: Inhibition of IMPDH in wild type Escherichia coli MG1655 cell lysate by SDS-PAGE.
Experiment [8] deals with Escherichia coli. The experiment can be described thus: Inhibition of GMPR in wild type Escherichia coli MG1655 cell lysate by SDS-PAGE.
Experiment [9] concerns the target Inosine-5'-monophosphate dehydrogenase 2 (Homo sapiens) (UniProt P12268). The experiment can be described thus: Ratio of Kinact to Ki for human IMPDH2 at 25 degC.
Experiment [10] shares this target. In words: Inhibition of human IMPDH2 at 200 uM by SDS-PAGE in presence of 6 mM dithiothreitol.

Inosine-5'-monophosphate dehydrogenase 2 (Homo sapiens), sequence (P12268 2-514 limits assumed): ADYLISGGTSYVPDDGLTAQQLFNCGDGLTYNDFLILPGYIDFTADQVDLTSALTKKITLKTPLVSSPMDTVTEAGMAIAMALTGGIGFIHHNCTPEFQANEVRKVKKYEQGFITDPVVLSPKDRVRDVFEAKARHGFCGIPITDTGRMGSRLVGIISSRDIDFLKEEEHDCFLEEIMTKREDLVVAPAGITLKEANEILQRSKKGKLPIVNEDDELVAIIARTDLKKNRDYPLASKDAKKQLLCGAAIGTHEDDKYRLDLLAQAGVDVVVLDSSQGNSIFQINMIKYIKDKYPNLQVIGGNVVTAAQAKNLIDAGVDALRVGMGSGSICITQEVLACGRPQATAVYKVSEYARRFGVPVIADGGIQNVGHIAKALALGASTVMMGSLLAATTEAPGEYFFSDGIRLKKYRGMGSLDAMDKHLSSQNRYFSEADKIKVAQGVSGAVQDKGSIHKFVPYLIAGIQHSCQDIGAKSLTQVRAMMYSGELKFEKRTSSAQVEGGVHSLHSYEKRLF

In the case of `O=C(CCCC[C@@H]1SC[C@@H]2NC(=O)N[C@@H]21)NCCCO[C@@H]1[C@H](O)[C@@H](COP(=O)(O)O)O[C@H]1n1cnc2c(Cl)ncnc21`, the inhibition result (in experiment [1]; with Escherichia coli [4]; in [6]; in the experiment on Escherichia coli [7]; in the experiment on Escherichia coli [8]) was “Active” throughout. Further, the values for the Ratio (in the experiment with Escherichia coli [2]; in experiment [3]) were 130 M⁻¹ s⁻¹ and 1.4 M⁻¹ s⁻¹, respectively. For the same compound, in the experiment on Escherichia coli [5], the inhibition result was “inactive”.
In the case of `O=P(O)(O)OC[C@H]1O[C@@H](n2cnc3c(Cl)ncnc32)[C@H](O)[C@@H]1O`, the figures for the Ratio (in the experiment with Escherichia coli [2]; in experiment [9]) were 120 M⁻¹ s⁻¹ and 0.9 M⁻¹ s⁻¹, respectively. Moreover, in experiment [10], the inhibition result is “inactive”.
